Measurements: ChEMBL document CHEMBL4673289, “Design, synthesis and biological evaluation of imidazolopyridone derivatives as novel BRD4 inhibitors” (Bioorg Med Chem, 2021)
pIC50: −log10 of the molar value. Active and inactive are the calls of the source. No cut-off for these calls is given here.

Experiments:
[1] = target: T1, Bromodomain-containing protein 4 (Homo sapiens, UniProt O60885); test: Inhibition of BRD4 (unknown origin) at 1 uM preincubated for 15 mins followed by substrate addition and measured after 1 hr by AlphaScreen assay relative to control; details: time 75.0 min
[2] = target: T1, Bromodomain-containing protein 4; test: Inhibition of BRD4 (unknown origin) preincubated for 15 mins followed by substrate addition and measured after 1 hr by AlphaScreen assay relative to control
SMMC-7721 = test: Antiproliferative activity against human SMMC-7721 cells assessed as cell growth inhibition at 2 uM measured after 48 to 72 hrs by MTT assay relative to control; format: functional; details: time 48-72 hrs, read-out: GI
BXPC-3 = test: Antiproliferative activity against human BXPC-3 cells assessed as cell growth inhibition at 2 uM measured after 48 to 72 hrs by MTT assay relative to control; format: functional; details: time 48-72 hrs, read-out: GI
PANC-1 = test: Antiproliferative activity against human PANC-1 cells assessed as cell growth inhibition at 2 uM measured after 48 to 72 hrs by MTT assay relative to control; format: functional; details: time 48-72 hrs, read-out: GI
Panc02 = test: Antitumor activity against mouse Panc02 allografted in BALB/c mouse assessed as reduction in tumor weight at 100 mg/kg, ip administered every day for 20 days relative to control; format: functional; details: 480 h, time 20 day, read-out: TGI
[3] = Toxicity in BALB/c mouse allografted with mouse Panc02 cells assessed as effect on body weight at 100 mg/kg, ip administered every day measured after 19 days; format: organism-based; details: in vivo, 456 h, time 19 day
Mus musculus [4] = test: Upregulation of caspase 3 in BALB/c mouse allografted with mouse Panc02 cells […] at 100 mg/kg, ip administered every day measured after 20 days by immunohistochemical analysis; format: functional, organism-based; details: time 20.0 day
Mus musculus [5] = test: Downregulation of Ki67 expression in BALB/c mouse allografted with mouse Panc02 cells […] at 100 mg/kg, ip administered every day measured after 20 days by immunohistochemical analysis; format: functional, organism-based; details: time 20.0 day

Structure (SMILES)	inhibition [1] [%]	pIC50 [2]	inhibition of growth at 2 µM (SMMC-7721) [%]	inhibition of growth at 2 µM (BXPC-3) [%]	inhibition of growth at 2 µM (PANC-1) [%]	also measured
Cc1noc(C)c1-c1cccc(Oc2ccc(S(C)(=O)=O)cc2-c2cn(C)c(=O)c3cncn23)c1	62.7	–	–	–	–	–
CCS(=O)(=O)c1ccc(Oc2cc(F)c(F)c(F)c2)c(-c2cn(C)c(=O)c3cncn23)c1	40.1	–	–	–	–	–
Cc1sc2c(c1C)C(c1ccc(Cl)cc1)=N[C@@H](CC(=O)C(C)(C)C)c1nnc(C)n1-2	99.5	7.06	12.2	31.1	17.1	–
CCS(=O)(=O)c1ccc(Oc2cc(-c3c(C)noc3C)ccc2OC)c(-c2cn(C)c(=O)c3cncn23)c1	99.9	7.25	18.4	42.2	16.2	–
CCS(=O)(=O)c1ccc(Oc2cc(-c3c(C)noc3C)ccc2F)c(-c2cn(C)c(=O)c3cncn23)c1	99.5	6.82	21.3	33.2	19.6	–
CCS(=O)(=O)c1ccc(Oc2cccc(-c3c(C)noc3C)n2)c(-c2cn(C)c(=O)c3cncn23)c1	70.2	–	–	–	–	–
Nc1ccn([C@@H]2O[C@H](CO)[C@@H](O)C2(F)F)c(=O)n1 [GEMCITABINE]	–	–	–	–	–	inhibition in vivo at 100 mg/kg (Panc02): 70%; Activity [3]: Non-Toxic; Activity (Mus musculus [4]): Active; Activity (Mus musculus [5]): Active
CCS(=O)(=O)c1ccc(Oc2ccc(Cl)c(-c3c(C)noc3C)c2)c(-c2cn(C)c(=O)c3cncn23)c1	64.9	–	–	–	–	–
CCS(=O)(=O)c1ccc(Oc2ccc(F)c(-c3c(C)noc3C)c2)c(-c2cn(C)c(=O)c3cncn23)c1	78.1	–	–	–	–	–
CCS(=O)(=O)c1ccc(Oc2ccc(C)c(-c3c(C)noc3C)c2)c(-c2cn(C)c(=O)c3cncn23)c1	96.5	6.60	19.9	35.8	23.7	–
CCS(=O)(=O)c1ccc(Oc2cc(-c3c(C)noc3C)ccc2C#N)c(-c2cn(C)c(=O)c3cncn23)c1	31.2	–	–	–	–	–
CCS(=O)(=O)c1ccc(Oc2cc(-c3c(C)noc3C)ccc2Cl)c(-c2cn(C)c(=O)c3cncn23)c1	86.3	–	–	–	–	–
CCS(=O)(=O)c1ccc(Oc2cccc(-c3c(C)noc3C)c2)c(-c2cn(C)c(=O)c3cncn23)c1	93.2	6.36	18.2	41.2	21.6	–
CCS(=O)(=O)c1ccc(Oc2cc(-c3c(C)noc3C)ccc2C)c(-c2cn(C)c(=O)c3cncn23)c1	95.2	6.58	11.4	30.2	20.6	–
